Experimental data as given in a compilation of properties of binary mixtures (doi:10.1016/j.molliq.2022.120536).

Test: xn = mol fraction of the nth substance listed
Conditions: 100 kPa

CC[N+](CC)(CC)CC.O=S(=O)([O-])C(F)(F)F + CC#N
electrical conductivity [S/m]
Conditions | x1 = 0.02 | x1 = 0.05 | x1 = 0.08 | x1 = 0.0997 | x1 = 0.1199 | x1 = 0.1498 | x1 = 0.2 | x1 = 0.25 | x1 = 0.2995
293.15 K | – | – | 4.63 | 4.72 | 4.54 | 4.22 | 3.51 | 2.89 | 2.58
298.15 K | 2.66 | 4.19 | 4.71 | – | 4.7 | 4.38 | 3.62 | 3.14 | 2.82
303.15 K | 2.77 | 4.39 | 4.84 | 5 | 4.96 | 4.48 | 3.78 | 3.39 | 3.08
308.15 K | 2.87 | 4.57 | 5.08 | 5.24 | 5.22 | – | 4.06 | 3.65 | 3.35
313.15 K | 2.97 | 4.76 | 5.31 | 5.49 | 5.48 | 5.04 | 4.34 | 3.91 | 3.62
318.15 K | 3.08 | – | 5.54 | 5.73 | 5.74 | 5.32 | 4.61 | 4.17 | –
323.15 K | 3.18 | 5.11 | 5.77 | 5.98 | 5.99 | 5.6 | 4.89 | 4.44 | –
328.15 K | 3.28 | 5.29 | 6 | 6.22 | 6.25 | 5.88 | 5.17 | 4.7 | 4.44
333.15 K | 3.38 | 5.46 | 6.23 | 6.45 | 6.5 | 6.15 | – | – | –
338.15 K | 3.47 | 5.64 | 6.45 | 6.69 | 6.76 | 6.42 | 5.72 | 5.22 | 5.01
343.15 K | 3.58 | 5.81 | 6.67 | 6.92 | 7.02 | 6.7 | 6 | 5.5 | 5.28
348.15 K | – | 5.97 | – | 7.16 | 7.27 | – | 6.26 | 5.77 | 5.55
